Experiment [1] concerns ornithine decarboxylase (ODC). Briefly: Ornithine decarboxylase assay, inhibition of TPA induction of ODC. Type of experiment: cell-based. As to conditions: esters of Compounds 9 and 10.
For another experiment, the target named is T1, RXRα (Homo sapiens, UniProt P19793).
T1 construct: expressed in transfected cells; host or cells: CV-1 (African green monkey kidney)
T1 sequence (P19793 1-462): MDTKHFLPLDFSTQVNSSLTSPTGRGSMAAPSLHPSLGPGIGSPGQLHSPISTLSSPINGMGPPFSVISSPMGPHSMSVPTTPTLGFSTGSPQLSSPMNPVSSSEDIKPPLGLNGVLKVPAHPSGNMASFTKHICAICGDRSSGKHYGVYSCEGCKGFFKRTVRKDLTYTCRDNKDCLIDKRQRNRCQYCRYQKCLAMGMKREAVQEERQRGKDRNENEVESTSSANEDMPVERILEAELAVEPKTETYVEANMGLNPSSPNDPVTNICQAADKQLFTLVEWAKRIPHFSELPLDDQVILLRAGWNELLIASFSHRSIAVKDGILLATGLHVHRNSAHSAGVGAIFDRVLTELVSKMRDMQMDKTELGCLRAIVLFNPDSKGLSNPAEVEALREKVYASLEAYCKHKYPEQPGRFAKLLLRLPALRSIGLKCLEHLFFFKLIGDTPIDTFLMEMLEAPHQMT
Briefly: Co-transfection assay, RXRα agonist activity. Type of experiment: cell-based. The following applies: CV-1 cells, 40 hours, read-out: Potency (EC50) RXRα.

The next experiment addresses T2, RARγ (Homo sapiens, UniProt P13631).
T2 construct: expressed in transfected cells; host or cells: CV-1 (African green monkey kidney)
T2 sequence (P13631 1-454): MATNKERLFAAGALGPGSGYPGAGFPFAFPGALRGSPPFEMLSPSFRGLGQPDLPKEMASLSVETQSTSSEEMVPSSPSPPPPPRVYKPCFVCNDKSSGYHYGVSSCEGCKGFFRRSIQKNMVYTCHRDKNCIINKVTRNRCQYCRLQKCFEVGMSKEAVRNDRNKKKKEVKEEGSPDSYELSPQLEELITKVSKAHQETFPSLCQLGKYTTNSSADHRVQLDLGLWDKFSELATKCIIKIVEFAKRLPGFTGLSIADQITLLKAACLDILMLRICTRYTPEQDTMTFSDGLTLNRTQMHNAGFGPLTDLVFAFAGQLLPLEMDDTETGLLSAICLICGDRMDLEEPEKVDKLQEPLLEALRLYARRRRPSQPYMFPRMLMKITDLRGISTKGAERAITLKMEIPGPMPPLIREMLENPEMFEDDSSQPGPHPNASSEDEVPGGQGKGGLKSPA
In words: Co-transfection assay, RARγ agonist activity. The class given is cell-based.

A further experiment has as its target T3, RXRβ (Mus musculus, UniProt P28704).
T3 construct: expressed in transfected cells; host or cells: CV-1 (African green monkey kidney)
T3 sequence (P28704 1-520): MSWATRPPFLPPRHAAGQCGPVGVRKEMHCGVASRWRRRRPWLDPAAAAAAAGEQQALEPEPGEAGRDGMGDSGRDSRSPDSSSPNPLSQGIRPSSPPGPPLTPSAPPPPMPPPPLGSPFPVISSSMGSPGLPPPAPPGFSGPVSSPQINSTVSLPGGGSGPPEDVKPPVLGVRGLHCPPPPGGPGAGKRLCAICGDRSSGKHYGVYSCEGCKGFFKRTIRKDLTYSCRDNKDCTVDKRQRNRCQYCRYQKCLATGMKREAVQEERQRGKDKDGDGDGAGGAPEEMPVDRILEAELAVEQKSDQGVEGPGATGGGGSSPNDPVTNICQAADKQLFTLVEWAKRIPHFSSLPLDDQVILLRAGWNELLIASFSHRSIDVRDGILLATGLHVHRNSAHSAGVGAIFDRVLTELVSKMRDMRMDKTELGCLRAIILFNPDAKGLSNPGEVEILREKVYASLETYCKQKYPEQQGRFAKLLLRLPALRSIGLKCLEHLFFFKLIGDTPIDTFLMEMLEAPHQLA
In words: Co-transfection assay, RXRβ agonist activity. The class given is cell-based. The following applies: CV-1 cells, 40 hours, read-out: Potency (EC50) RXRβ.

The target of the next experiment is T4, RARα (Homo sapiens, UniProt P10276).
T4 construct: expressed in transfected cells; host or cells: CV-1 (African green monkey kidney)
T4 sequence (P10276 1-462): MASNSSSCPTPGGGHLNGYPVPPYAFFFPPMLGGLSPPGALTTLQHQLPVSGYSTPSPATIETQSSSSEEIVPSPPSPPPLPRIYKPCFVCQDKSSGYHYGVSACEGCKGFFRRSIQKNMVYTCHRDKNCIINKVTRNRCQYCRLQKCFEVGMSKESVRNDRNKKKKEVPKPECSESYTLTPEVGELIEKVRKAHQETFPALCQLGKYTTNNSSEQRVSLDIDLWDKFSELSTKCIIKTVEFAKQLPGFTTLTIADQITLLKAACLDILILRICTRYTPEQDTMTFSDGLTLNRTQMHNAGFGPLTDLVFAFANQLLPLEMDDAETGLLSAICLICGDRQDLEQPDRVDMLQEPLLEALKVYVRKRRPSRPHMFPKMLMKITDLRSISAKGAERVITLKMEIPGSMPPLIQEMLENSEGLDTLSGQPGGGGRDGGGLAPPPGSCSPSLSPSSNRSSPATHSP
Briefly: Co-transfection assay, RARα agonist activity. The class given is cell-based. As to conditions: CV-1 cells, 40 hours, read-out: Potency (EC50) RARα.

In another experiment the target is T5, RARβ (Homo sapiens, UniProt P10826).
T5 construct: expressed in transfected cells; host or cells: CV-1 (African green monkey kidney)
T5 sequence (P10826 1-448 isoform P10826-2): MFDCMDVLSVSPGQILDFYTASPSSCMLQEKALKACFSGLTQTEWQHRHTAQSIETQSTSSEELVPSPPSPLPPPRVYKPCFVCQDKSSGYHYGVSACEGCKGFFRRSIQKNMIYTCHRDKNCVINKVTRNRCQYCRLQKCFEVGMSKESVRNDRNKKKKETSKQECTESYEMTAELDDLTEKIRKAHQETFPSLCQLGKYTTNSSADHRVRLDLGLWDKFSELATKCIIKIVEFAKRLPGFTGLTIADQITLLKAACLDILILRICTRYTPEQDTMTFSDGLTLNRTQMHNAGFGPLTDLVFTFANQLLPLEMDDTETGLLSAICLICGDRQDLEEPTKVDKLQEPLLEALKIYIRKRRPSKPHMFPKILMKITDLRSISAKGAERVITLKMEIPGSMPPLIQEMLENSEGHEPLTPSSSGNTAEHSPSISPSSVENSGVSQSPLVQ
In words: Co-transfection assay, RARβ agonist activity. The class given is cell-based. As to conditions: CV-1 cells, 40 hours, read-out: Potency (EC50) RARβ.

The next experiment deals with T6, RXRγ (Mus musculus, UniProt P28705).
T6 construct: expressed in transfected cells; host or cells: CV-1 (African green monkey kidney)
T6 sequence (P28705 1-463): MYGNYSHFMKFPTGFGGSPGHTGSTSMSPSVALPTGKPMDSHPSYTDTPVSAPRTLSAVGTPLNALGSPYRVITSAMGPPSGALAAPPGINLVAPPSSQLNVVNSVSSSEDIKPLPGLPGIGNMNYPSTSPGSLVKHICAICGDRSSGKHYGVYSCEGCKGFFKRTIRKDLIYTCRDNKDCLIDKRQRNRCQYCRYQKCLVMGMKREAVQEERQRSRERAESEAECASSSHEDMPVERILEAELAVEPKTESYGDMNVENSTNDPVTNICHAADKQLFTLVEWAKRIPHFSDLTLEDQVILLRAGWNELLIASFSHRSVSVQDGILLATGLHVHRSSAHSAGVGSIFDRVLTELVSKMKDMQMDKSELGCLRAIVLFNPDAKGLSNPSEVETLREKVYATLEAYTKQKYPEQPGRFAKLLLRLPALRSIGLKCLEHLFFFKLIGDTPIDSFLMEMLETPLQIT
In words: Co-transfection assay, RXRγ agonist activity. The class given is cell-based. The following applies: CV-1 cells, 40 hours, read-out: Potency (EC50) RXRγ.

The test system of another experiment is RAR and RXR receptors. Briefly: Binding to the retinoid receptors taken together. As to conditions: RARs and RXRs; compounds 9 and 10 versus ATRA and 9-cis.
Another experiment relates to RARs and RXRs. Briefly: Co-transfection assay, RAR and RXR receptors taken together. Type of experiment: cell-based. On the procedure: Utilizing the "cis-trans" or "co-transfection" assay described by Evans et al., Science, 240:889-95 (May 13, 1988), the disclosure of which is herein incorporated by reference, the retinoid compounds of the present invention were tested and found to have strong, specific activity as either selective RAR agonists, selective RXR agonists, or as pan-agonist activators of both RAR and RXR receptors. This assay is described in further detail in U.S. Pat. Nos. 4,981,784 and 5,071,773, the disclosures of which are incorporated herein by reference.
In the co-transfection assay, a cloned cDNA for an IR (e.g., human RARα, RARβ, RXRγ) under the control of a constitutive promoter (e.g., the SV 40 promoter) is introduced by transfection (a procedure to induce cells to take up foreign genes) into a background cell substantially devoid of endogenous IRs. This introduced gene directs the recipient cells to make the IR protein of interest. A second gene is also introduced (co-transfected) into the same cells in conjunction with the IR gene. This second gene, comprising the cDNA for a reporter protein, such as firefly luciferase (LUC), is controlled by an appropriate hormone responsive promoter containing a hormone response element (HRE). This reporter plasmid functions as a reporter for the transcription-modulating activity of the target IR. Thus, the reporter acts as a surrogate for the products (mRNA then protein) normally expressed by a gene under control of the target receptor and its native hormone.
The co-transfection assay can detect small molecule agonists or antagonists of target IRs. Exposing the transfected cells to an agonist ligand compound increases reporter activity in the transfected cells. This activity can be conveniently measured, e.g., by increasing luciferase production, which reflects compound-dependent, IR-mediated increases in reporter transcription. […] . Increasing concentrations of a suspected antagonist will decrease the reporter signal (e.g., luciferase production). The co-transfection assay is therefore useful to detect both agonists and antagonists of specific IRs. Furthermore, it determines not only whether a compound interacts with a particular IR, but whether this interaction mimics (agonizes) or blocks (antagonizes) the effects of the native regulatory molecules on target gene expression, as well as the specificity and strength of this interaction.
To determine RAR and/or RXR agonist activity of the compounds of the present invention, the CV-1 cells were transiently transfected by calcium phosphate coprecipitation according to the procedure of Berger et al., 41 J. Steroid Biochem. Mol. Biol., 733 (1992) with the following receptor expressing plasmids: pRShRARα: Giguere et at., 330 Nature, 624 (1987); pRShRARβ and pRShRARγ, Ishikawa et al., 4 Mol. Endocrin., 837 (1990); pRShRXRα, Mangelsdorf et at., 345 Nature, 224 (1990); and pRSmRXRβ and pRSmRXRγ, Mangelsdorf et al., 6 Genes & Devel., 329 (1992), the disclosures of which are herein incorporated by reference. Each of these receptor expressing plasmids was co-transfected at a concentration of 5 ng/well, along with a basal reporter plasmid at 100 ng/well, the internal control plasmid pRS-β-Gal at 50 ng/well and filler DNA, pGEM at 45 ng/well.

In the case of `CCOC(=O)/C=C(C)/C=C/C=C(\C)c1cc(C(C)(C)C)cc(C(C)(C)C)c1` [Compound 7, Ethyl (2E, 4E, 6E)-7-(3,5-di-t-butylphenyl)-3-methylocta-2,4,6-trienoate], in experiment [1], the “retinoid activity of ester analogs (in words)” value is “exhibit retinoid activity”.
Consider `CC(/C=C/C=C(\C)c1ccc(C(C)(C)C)cc1)=C\C(=O)O` [Compound 44, (2E, 4E, 6E)-7-(4-T-butyl-phenyl)-3-methylocta-2,4,6-trienoic acid], for which the EC50 amounted to 1440 nM at RXRα; 33 nM at RARγ (CV-1 cells, 40 hours, read-out: Potency (EC50) RARγ); 21 nM on RXRβ; 223 nM at RARα; 37 nM at RARβ; 224 nM at RXRγ.
Take `C/C(=C/C=C/C(C)=C/C(=O)O)c1cc(C(C)(C)C)cc(C(C)(C)C)c1` [Compound 10, (2E, 4E, 6Z)-7-(3,5-Di-t-butylphenyl)-3-methylocta-2,4,6-trienoic acid]: the “binding on the retinoid receptors (in words)” value in the experiment on RAR and RXR receptors is “equal or superior binding”. Further, the “potency profile in comparison to 9-cis retinoic acid (in words)” value in the experiment on RARs and RXRs (versus 9-cis, pan-agonist) is on record as “superior potency profile”.
In the case of `CCOC(=O)/C=C(C)/C=C/C=C(/C)c1cc(C(C)(C)C)cc(C(C)(C)C)c1` [Compound 8, Ethyl (2E, 4E, 6Z)-7-(3,5-di-t-butylphenyl)-3-methylocta-2,4,6-trienoate], the “retinoid activity of ester analogs (in words)” value in experiment [1] is given as “exhibit retinoid activity”.
With `CC(/C=C/C=C(\C)c1cc(C(C)(C)C)cc(C(C)(C)C)c1)=C\C(=O)O` [Compound 9, (2E, 4E, 6E)-7-(3,5-Di-t-butylphenyl)-3-methylocta-2,4,6-trienoic acid], the “binding on the retinoid receptors (in words)” value with RAR and RXR receptors was “equal or superior binding”. Besides, the “RAR activity (in words)” value in the experiment with RARs and RXRs (RARs) was “extremely potent RAR active compounds”. On RARγ, the “activity on RARγ (in words)” value was “sub-nanomolar activity on RARγ”.

By EC50 is commonly meant the concentration that produces a half-maximal response.

(Values after US5721103A, “Trienoic retinoid compounds and methods” (Ligand Pharmaceuticals Incorporated, priority 1995, dated 1998).)
